# Data: patent US20120064176A1, “COMPOSITION FOR PREVENTING AND TREATING FATTY LIVER” (National Chung Hsing University, priority 2008, published 2012)
# Tested on: C57BL/6JNarl mice
# Experiment: Hepatic triglycerides after 7 weeks of lactoferrin, chromium or lactoferrin+chromium in high-fat-diet mice
# Format: in vivo
# Conditions: 10 mice in each group
# Description: Male C57BL/6JNarl mice (n=70) fed with high fat diet (high-fat Rodent TestDiet, PMI International Inc., MO, USA; 67% of calories provided by fat), age 8 weeks, are randomly divided into the control group, the low-dose lactoferrin group (NZMP lactoferrin, New Zealand, 40 mg/kg BW/day), the high-dose lactoferrin group (80 mg/kg BW/day), the low-dose chromium group (CrCl3·6H2O, Sigma, Cr^+3 40 μg/kg BW/day), the high dose chromium group (Cr^+3 80 μg/kg BW/day), the low-dose lactoferrin+chromium group (lactoferrin 40 mg/kg BW/day+Cr^+3 40 μg/kg BW/day), and the high-dose lactoferrin+chromium group (lactoferrin 80 mg/kg BW/day+Cr^+3 80 μg/kg BW/day) (10 mice in each group). After supplementation for 7 weeks, the C57BL/6JNarl mice are sacrificed and their livers are harvested. Then, the level of hepatic triglycerides is analyzed. […] However, no significant difference between the other groups is found.
compound,measurement,setting,value
"O.O.O.O.O.O.[Cl][Cr]([Cl])[Cl] [chromium, CrCl3·6H2O]","Hepatic triglycerides, High-dose",High-dose: lactoferrin 80 mg/kg BW/day and/or Cr+3 80 μg/kg BW/day,19.0 ± 5.7 μ mol/g liver
same,"Hepatic triglycerides, Low-dose",Low-dose: lactoferrin 40 mg/kg BW/day and/or Cr+3 40 μg/kg BW/day,18.4 ± 8.1 μ mol/g liver
